Where two headings read alike, the source gives them in different places. No end group written: not given here.
Columns and labels:
[1] = test system: putative serine protease in Staphylococcus nepalensis culture supernatant; format: biochemical
[2] = Half-life of corisin in vitro in a cell culture system; format: in vitro ADME, human; set-up: Corisin concentration in cell culture medium: unit not given here; conditions: enzyme immunoassay; for Corisin concentration in cell culture medium: A549 culture, 10 µg/ml added
Experimental: We assessed the half-life of corisin in a cell culture system to determine the elimination rate of corisin from a solution in a cell culture system. A549 alveolar epithelial cells were cultured up to confluence in DMEM supplemented with 10% heat-inactivated FBS. The cells were then washed and cultured in FBS (−) DMEM. Corisin was then inoculated into the cell culture medium at a final concentration of 10 µg/ml, and the cell supernatant was sampled after 0, 1, 3, 6, 12, and 24 h. The concentration of corisin was measured by enzyme immunoassay, and the half-life of corisin was determined.

[3] = 0.1, 0.3, 1 mM, 0.5, 1 and 2 h at 37 °C, silver staining

Compound `CC(C)C[C@H](NC(=O)[C@H]1O[C@@H]1C(=O)O)C(=O)NCCCCN=C(N)N` [E-64] has an Inhibition ([1]; 0h, 3uM) of 0, an Inhibition ([1]; 0h, 10uM) of 0 and an Inhibition ([1]; 0h, 30uM) of 0. The “Effect on transglycosylase degradation by S. nepalensis culture supernatant” value (shortened to “Effect on transglycosylase degradation”) [1, 3] was “neither E-64 nor EDTA suppressed”, the Inhibition ([1]; 0.5h, 3uM) was 0 and the Inhibition ([1]; 0.5h, 10uM) was 0. It also gave an Inhibition ([1]; 0.5h, 30uM) of 0, an Inhibition ([1]; 1h, 3uM) of 0 and an Inhibition ([1]; 1h, 10uM) of 0. For the same compound, the Inhibition ([1]; 1h, 30uM) was 0.2, the Inhibition ([1]; 2h, 3uM) was 0 and the Inhibition ([1]; 2h, 10uM) was 0. The Inhibition ([1]; 2h, 30uM) was 0.03.

With `O=C(O)CN(CCN(CC(=O)O)CC(=O)O)CC(=O)O` [EDTA, ethylenediaminetetraacetic acid] the “Effect on transglycosylase degradation” value [1] was “neither E-64 nor EDTA suppressed”.

With `Cl.NCCc1ccc(S(=O)(=O)F)cc1` [pefabloc SC] the “Effect on transglycosylase degradation” value [1, 3] was “suppress transglycosylase degradation”.

Work on `Cl.NCCc1ccc(S(=O)(=O)F)cc1` [pefabloc] yielded an Inhibition ([1]; 0h, 0.1mM) of 0, an Inhibition ([1]; 0h, 0.3mM) of 0 and an Inhibition ([1]; 0h, 1mM) of 0. For the same compound, the Inhibition ([1]; 0.5h, 0.1mM) was 53.32, the Inhibition ([1]; 0.5h, 0.3mM) was 87.64 and the Inhibition ([1]; 0.5h, 1mM) was 98.7. It also gave an Inhibition ([1]; 1h, 0.1mM) of 56.04, an Inhibition ([1]; 1h, 0.3mM) of 90.52 and an Inhibition ([1]; 1h, 1mM) of 98.55. For the same compound, the Inhibition ([1]; 2h, 0.1mM) was 52.92, the Inhibition ([1]; 2h, 0.3mM) was 90.94 and the Inhibition ([1]; 2h, 1mM) was 99.04.

With IVMPESSGNPNAVNPAGYR [corisin] the “Half-life in solution in a human alveolar cell culture system” value ([2]; 10 µg/ml in FBS(-) DMEM on A549 cells) was less than 60 min, the “Corisin concentration in cell culture medium” value (from here on “Corisin concentration”) ([2]; time 1 h) was 3931.8 and the “Corisin concentration” value ([2]; time 3 h) was 2007.7. For the same compound, the “Corisin concentration” value ([2]; time 6 h) was 1433.4, the “Corisin concentration” value ([2]; time 12 h) was 1485.2 and the “Corisin concentration” value ([2]; time 24 h) was 1357.9. The half-life at 10 µg/ml ([2]; human, 10 µg/ml in FBS(-) DMEM on confluent A549 cells, sampled 0-24 h, exponential decay model, n = 4 per time point, read-out: Half-life in A549 epithelial cell culture medium (converted)) was 42 min.
